Reference: patent US7442784B2, “Ligand activated transcriptional regulator proteins” (The Scripps Research Institute, priority 1999, dated 2008)
pKd: −log10 of the molar value.

How the values were obtained:
Assay in all cases: Finger 2 variant affinity (Table 5)
Type in all cases: binding
Finger-2 Subsite GAG = biological target: Finger-2 Subsite GAG
Text: (§1) Finger 2 variants recognizing each of the 16 triplets of the GXX set (Segal et al. (1999) Proc. Natl. Acad. Sci. U.S.A. 96:2758-2763; and Table 1), as well as one variant recognizing TGA, have been successfully selected. […] Thus, a 5′- and 3′-G selected an arginine at helix positions 6 and −1, respectively, while a central G selected an a histidine or lysine at position 3 of the recognition helix. In contrast, a central A selected an asparagine, a 3′-A a glutamine, a central T a serine or alanine, a 3′-T a threonine or serine, a central C an aspartate or threonine, and a 3′-C an aspartate or glutamate at the corresponding helix positions.
(§2) In Table 5, below, the finger 2 variants generated by phage display selection and refined by site-directed mutagenesis are summarized. Protein designations are in the form pXXX, for clones derived from panning; pmXXX refers to clones refined by mutagenesis. Helix positions −1, 3, and 6 are shown in bold, altered nucleotides are underlined. The values represent the results of at least two independent experiments. The standard error was ±50% or less.

Finger-2 Subsite GTG = biological target: Finger-2 Subsite GTG
Text: as §1, §2

Finger-2 Subsite GTT = biological target: Finger-2 Subsite GTT
Text: as §1, §2

pmGTG: finger 2 variant refined by mutagenesis, helix SRSDELVR
KD,Prot/KD,Zif268 (Finger-2 Subsite GAG): 3.0
pKd (Finger-2 Subsite GAG): 7.52
KD,Prot/KD,Zif268 (Finger-2 Subsite GTG): 1.5
pKd (Finger-2 Subsite GTG): 7.82

pmGTT: finger 2 variant refined by mutagenesis, helix STSGSLVR
KD,Prot/KD,Zif268 (Finger-2 Subsite GTT): 0.5
pKd (Finger-2 Subsite GTT): 8.30
